Here are results for 18 molecules from patent publication US12209079B2 (GENERAL INCORPORATED ASSOCIATION PHARMA VALLEY PROJECT …, priority 2017, dated 2025).

The structures appear in SMILES notation. Structures can show the parent of a compound that is named as a salt.

In assay [1] the target is rhTDO (recombinant human TDO) (Homo sapiens, UniProt P48775). The assay can be described thus: Enzyme assay using rhTDO (rate of kynurenine production). The assay is classed as biochemical. The note with it: 2 h; final concentration of the compound 10 μM; rate relative to reaction without compound; read-out: rhTDO-mediated kynurenine production. In a few lines: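 Kynurenine output, as percent of untreated control after background subtraction, read at 490 nm with p-dimethylbenzaldehyde following TCA quench and 15 min heating at 50 °C. Reaction: rhTDO with compound, 10 min preincubation then 120 min at 37 °C, started by 20 mM tryptophan stock, in phosphate/ascorbate/methylene blue/catalase.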
Sequence of rhTDO (recombinant human TDO) (P48775 whole entry): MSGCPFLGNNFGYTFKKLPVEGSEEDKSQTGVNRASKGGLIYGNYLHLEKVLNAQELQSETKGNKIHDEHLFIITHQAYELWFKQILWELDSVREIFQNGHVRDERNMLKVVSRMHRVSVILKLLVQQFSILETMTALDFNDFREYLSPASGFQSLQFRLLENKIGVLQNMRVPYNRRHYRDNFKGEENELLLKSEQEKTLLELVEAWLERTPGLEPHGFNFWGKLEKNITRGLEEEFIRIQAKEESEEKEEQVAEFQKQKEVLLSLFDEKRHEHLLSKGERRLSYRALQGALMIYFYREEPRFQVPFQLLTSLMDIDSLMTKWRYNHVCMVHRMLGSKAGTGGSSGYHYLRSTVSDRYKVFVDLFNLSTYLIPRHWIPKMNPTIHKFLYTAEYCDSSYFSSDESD

Assay [2] deals with T1, IDO in A431 cells (Homo sapiens, UniProt P14902).
T1 construct: endogenous in cells; host or cells: A431 cells, IFN-γ stimulated
T1 sequence (P14902 whole entry): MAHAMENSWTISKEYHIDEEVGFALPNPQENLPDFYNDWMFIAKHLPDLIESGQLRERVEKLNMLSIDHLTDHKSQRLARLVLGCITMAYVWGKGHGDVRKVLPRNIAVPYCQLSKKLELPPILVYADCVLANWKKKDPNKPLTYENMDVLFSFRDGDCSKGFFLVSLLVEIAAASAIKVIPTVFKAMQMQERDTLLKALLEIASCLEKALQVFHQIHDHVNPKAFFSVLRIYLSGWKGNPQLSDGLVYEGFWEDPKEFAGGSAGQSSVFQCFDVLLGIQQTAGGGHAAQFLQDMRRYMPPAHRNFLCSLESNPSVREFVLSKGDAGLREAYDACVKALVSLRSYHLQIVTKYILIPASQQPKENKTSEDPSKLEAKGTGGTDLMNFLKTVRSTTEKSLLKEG
Kind of assay: IDO cell-based assay, kynurenine production in IFN-γ stimulated A431 cells. The note with it: A-431, 24 h; final concentration of the compound 10 μM; rate relative to culture without compound. The gist of the method:
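Kynurenine output was read by absorbance at 460 nm after p-dimethylbenzaldehyde/trichloroacetic acid reagent, background-corrected, and given as % of untreated wells. Before the read, cells in 178 μM L-tryptophan medium had 1 h compound preincubation, then 24 h IFN-γ stimulation (added as 100 ng/mL dilution).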

The target of assay [3] is rhIDO (recombinant human IDO) (Homo sapiens, UniProt P14902). The assay can be described thus: Enzyme assay using rhIDO (rate of kynurenine production). The assay is classed as biochemical. The note with it: 2 h; final concentration of the compound 10 μM; rate relative to reaction without compound; read-out: rhIDO-mediated kynurenine production. In a few lines: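 Kynurenine formation, expressed as % of uncompounded reaction after background subtraction, was read by absorbance at 490 nm following TCA stop, 50 °C hydrolysis and Ehrlich-type p-dimethylbenzaldehyde staining. Recombinant human IDO with ascorbate/methylene blue/catalase was pre-exposed to compound 10 min, then reacted 120 min at 37 °C after adding 2 mM tryptophan stock.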
Sequence of rhIDO (recombinant human IDO) (P14902 whole entry): as above

In assay [4] the target is T2, TDO in A172 cells (Homo sapiens, UniProt P48775).
T2 construct: endogenous in cells; host or cells: A172 cells
T2 sequence (P48775 whole entry): as the sequence (P48775 whole entry) above
The assay can be described thus: TDO cell-based assay, kynurenine production in A172 cells. The note with it: A 172; final concentration of the compound 10 μM; rate relative to culture without compound. In a few lines: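 A172 cells were preincubated with compound for 1 h, then given L-tryptophan (final 524 μM) for 24 h at 37 °C. Kynurenine was read at 460 nm after p-dimethylbenzaldehyde/TCA reagent, background-subtracted, and expressed as % of no-compound production.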

`N/C(=N\c1ccc(F)cc1)SCc1ccc(F)cc1CS/C(N)=N/c1ccc(F)cc1` [Compound 127, (4-Fluoro-1,2-phenylene)bis(methylene) (E,E)-bis(N′-(4-fluorophenyl)carbamimidothioate) dihydrobromide]: the remaining activity at 10 µM was found to be 12% in assay [1], 8% in assay [2], 0% in assay [3] and 10% in assay [4].
On the same counts, the results for `COc1ccc(/N=C(\N)SCc2ccc(F)cc2CS/C(N)=N/c2ccc(OC)cc2)cc1` [Compound 128, (4-Fluoro-1,2-phenylene)bis(methylene) (E,E)-bis(N′-(4-methoxyphenyl)carbamimidothioate) dihydrobromide] are 14%, 11%, 3% and 8%.
On the same counts, the results for `N/C(=N\c1ccc(F)c(Cl)c1)SCc1ccc(F)cc1CS/C(N)=N/c1ccc(F)c(Cl)c1` [Compound 129, (4-Fluoro-1,2-phenylene)bis(methylene) (E,E)-bis(N′-(3-chloro-4-fluorophenyl)carbamimidothioate) dihydrobromide] are 8%, 7%, -2% and 14%.
For `N/C(=N\c1ccc(F)cc1F)SCc1ccc(F)cc1CS/C(N)=N/c1ccc(F)cc1F` [Compound 130, (4-Fluoro-1,2-phenylene)bis(methylene) (E,E)-bis(N′-(2,4-difluorophenyl)carbamimidothioate) dihydrobromide], the remaining activity at 10 µM turned out to be 8% in assay [1], 1% in assay [2], 1% in assay [3] and 9% in assay [4].
In the case of `N=C(N)SCc1cc(F)c(F)cc1CSC(=N)N` [Compound 131, (4,5-Difluoro-1,2-phenylene)bis(methylene) dicarbamimidothioate dihydrobromide], the remaining activity at 10 µM turned out to be 3% in assay [1], 5% in assay [2], 7% in assay [3] and 6% in assay [4].
With `N/C(=N\c1ccc(Cl)cc1)SCc1cc(F)c(F)cc1CS/C(N)=N/c1ccc(Cl)cc1` [Compound 132, (4,5-Difluoro-1,2-phenylene)bis(methylene) (E,E)-bis(N′-(4-chlorophenyl)carbamimidothioate) dihydrobromide], the remaining activity at 10 µM in assay [1] is 5%; in assay [2] it was 11%; in assay [3], -2%; in assay [4] it was 5%.
In the case of `Fc1ccc(CSC2=NCN(CCc3ccc(Cl)c(Cl)c3)CN2)c(CSC2=NCN(CCc3ccc(Cl)c(Cl)c3)CN2)c1` [Compound 133, 6,6′-(((4-Fluoro-1,2-phenylene)bis(methylene))bis(sulfanediyl))bis(3-(3,4-dichlorophenethyl)-1,2,3,4-tetrahydro-1,3,5-triazine)], the remaining activity at 10 µM in assay [1] was 10%; in assay [2], 13%; in assay [3] it was 1%; in assay [4] it was 6%.
Take `N/C(=N\c1ccc(F)c(Cl)c1)SCc1cc(Cl)c(Cl)cc1CS/C(N)=N/c1ccc(F)c(Cl)c1` [Compound 134, (4,5-Dichloro-1,2-phenylene)bis(methylene) (E,E)-bis(N′-(3-chloro-4-fluorophenyl)carbamimidothioate) dihydrobromide]: the remaining activity at 10 µM is 5% in assay [1], 10% in assay [2], -2% in assay [3] and 5% in assay [4].
Take `N/C(=N\c1ccc(Br)cc1)SCc1cc(Cl)c(Cl)cc1CS/C(N)=N/c1ccc(Br)cc1` [Compound 135, (4,5-Dichloro-1,2-phenylene)bis(methylene) (E,E)-bis(N′-(4-bromophenyl)carbamimidothioate) dihydrobromide]: the remaining activity at 10 µM in assay [1] is 8%; in assay [2] it was 12%; in assay [3] it was -2%; in assay [4] it was 0%.
Regarding `N/C(=N\c1cccc(Br)c1)SCc1cc(Cl)c(Cl)cc1CS/C(N)=N/c1cccc(Br)c1` [Compound 136, (4,5-Dichloro-1,2-phenylene)bis(methylene) (E,E)-bis(N′-(3-bromophenyl)carbamimidothioate) dihydrobromide], the remaining activity at 10 µM in assay [1] is 10%; in assay [2] it was 13%; in assay [3], -2%; in assay [4], 3%.
On the same counts, the results for `N/C(=N\c1ccc(F)cc1)SCc1cc(Cl)c(Cl)cc1CS/C(N)=N/c1ccc(F)cc1` [Compound 137, (4,5-Dichloro-1,2-phenylene)bis(methylene) (E,E)-bis(N′-(4-fluorophenyl)carbamimidothioate) dihydrobromide] are 9%, 8%, -3% and 2%.
Consider `Cc1ccc(/N=C(\N)SCc2cc(Cl)c(Cl)cc2CS/C(N)=N/c2ccc(C)cc2)cc1` [Compound 138, (4,5-Dichloro-1,2-phenylene)bis(methylene) (E,E)-bis(N′-(p-tolyl)carbamimidothioate) dihydrobromide], for which the remaining activity at 10 µM in assay [1] was 14%; in assay [2] it was 8%; in assay [3], -1%; in assay [4] it was 0%.
Regarding `Fc1ccc(CN2CN=C(SCc3cc(Cl)c(Cl)cc3CSC3=NCN(Cc4ccc(F)c(Cl)c4)CN3)NC2)cc1Cl` [Compound 139, 6,6′-(((4,5-Dichloro-1,2-phenylene)bis(methylene))bis(sulfanediyl))bis(3-(3-chloro-4-fluorobenzyl)-1,2,3,4-tetrahydro-1,3,5-triazine)], the remaining activity at 10 µM in assay [1] stood at 14%; in assay [2], 8%; in assay [3], 24%; in assay [4], 11%.
In the case of `Fc1ccc(CSC2=NCN(CCc3ccc(C(F)(F)F)cc3)CN2)c(CSC2=NCN(CCc3ccc(C(F)(F)F)cc3)CN2)c1` [Compound 140, 6,6′-(((4-Fluoro-1,2-phenylene)bis(methylene))bis(sulfanediyl))bis(3-(4-(trifluoromethyl)phenethyl)-1,2,3,4-tetrahydro-1,3,5-triazine)], the remaining activity at 10 µM came to 16% in assay [1], 15% in assay [2], 34% in assay [3] and 9% in assay [4].
In the case of `FC(F)(F)c1ccc(CCN2CN=C(SCc3ccc(Br)cc3CSC3=NCN(CCc4ccc(C(F)(F)F)cc4)CN3)NC2)cc1` [Compound 141, 6,6′-(((4-Bromo-1,2-phenylene)bis(methylene))bis(sulfanediyl))bis(3-(4-(trifluoromethyl)phenethyl)-1,2,3,4-tetrahydro-1,3,5-triazine)], the remaining activity at 10 µM in assay [1] was 14%; in assay [2] it was 5%; in assay [3] it was 21%; in assay [4] it was 11%.
For `FC(F)(F)c1ccc(CCN2CN=C(SCc3ccccc3CSC3=NCN(CCc4ccc(C(F)(F)F)cc4)CN3)NC2)cc1` [Compound 142, 1,2-Bis (((5-(4-(Trifluoromethyl)phenethyl)-1,4,5,6-tetrahydro-1,3,5-triazin-2-yl)thio)methyl)benzene], the remaining activity at 10 µM in assay [1] came to 18%; in assay [2], 16%; in assay [3] it was 43%; in assay [4], 6%.
The matching figures for `FC(F)(F)c1ccc(CCN2CN=C(SCc3cc(Cl)c(Cl)cc3CSC3=NCN(CCc4ccc(C(F)(F)F)cc4)CN3)NC2)cc1` [Compound 143, 6,6′-(((4,5-Dichloro-1,2-phenylene)bis(methylene))bis(sulfanediyl))bis(3-(4-(trifluoromethyl)phenethyl)-1,2,3,4-tetrahydro-1,3,5-triazine)]: 6%, 9%, 17% and 7%.
Regarding `Fc1ccc(CN2CN=C(SCc3ccc(Br)cc3CSC3=NCN(Cc4ccc(F)c(Cl)c4)CN3)NC2)cc1Cl` [Compound 144, 6,6′-(((4-Bromo-1,2-phenylene)bis(methylene))bis(sulfanediyl))bis(3-(3-chloro-4-fluorobenzyl)-1,2,3,4-tetrahydro-1,3,5-triazine)], the remaining activity at 10 µM stood at 19% in assay [1], 6% in assay [2], 15% in assay [3] and 18% in assay [4].
